Measured values from paper PMC2965585 (Bioorganic & medicinal chemistry letters, 2010).

Tests used:
[1] = test system: Lethal Toxin (LT; PA + LF); design: species or system Fischer 344 rats; conditions: rat, in vivo
[2] = molecular target: anthrax lethal factor (LF) (Bacillus anthracis, UniProt P15917); assay type: biochemical
anthrax lethal factor (LF), sequence (P15917 34-809 limits assumed): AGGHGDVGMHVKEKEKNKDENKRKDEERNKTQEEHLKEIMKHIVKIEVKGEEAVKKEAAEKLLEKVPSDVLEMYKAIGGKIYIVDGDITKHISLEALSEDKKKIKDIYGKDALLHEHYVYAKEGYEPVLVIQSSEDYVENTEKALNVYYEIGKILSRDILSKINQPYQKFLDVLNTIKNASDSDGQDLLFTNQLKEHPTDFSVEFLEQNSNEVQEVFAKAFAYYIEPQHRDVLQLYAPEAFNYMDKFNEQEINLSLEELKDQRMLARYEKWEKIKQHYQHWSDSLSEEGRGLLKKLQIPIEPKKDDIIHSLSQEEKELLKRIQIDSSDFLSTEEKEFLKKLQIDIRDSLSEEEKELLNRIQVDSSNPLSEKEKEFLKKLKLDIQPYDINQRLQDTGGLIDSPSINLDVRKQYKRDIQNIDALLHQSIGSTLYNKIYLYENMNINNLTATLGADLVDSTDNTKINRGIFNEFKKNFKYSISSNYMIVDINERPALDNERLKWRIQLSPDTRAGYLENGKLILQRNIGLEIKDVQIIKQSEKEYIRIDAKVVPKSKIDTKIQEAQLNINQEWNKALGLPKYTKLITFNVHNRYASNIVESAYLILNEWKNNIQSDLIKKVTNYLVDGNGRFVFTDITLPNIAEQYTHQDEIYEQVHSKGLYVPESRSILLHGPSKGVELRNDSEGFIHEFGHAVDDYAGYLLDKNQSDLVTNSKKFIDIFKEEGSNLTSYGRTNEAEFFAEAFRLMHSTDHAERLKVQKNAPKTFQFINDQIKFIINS

| SMILES | protection [1] | protection (percent survival) [1] [%] | time after treatment with LT at which animals became ill ([1]; 2.5 mg/kg) | time post exposure by which animals appeared fully recovered ([1]; 2.5 mg/kg) [h] | mode of inhibition (kinetic studies) [2] |
| --- | --- | --- | --- | --- | --- |
| Cc1cc(CNCCCC[C@@H](Nc2cc(C)c(F)c(C)c2)C(=O)NO)ccc1F [Compound 16] | fully protective | 100 | approximately 3 hours | ≤ 24 |  |
| CO[C@H](C[C@H](CCN(C)CCCc1ccc(F)c(C)c1)C(=O)NO)c1ccc(F)cc1 [Compound 40] |  |  |  |  | competitive behavior |
